Results: publication PMC3532055 (Journal of medicinal chemistry, 2012)

Columns and labels:
[1] = biological target: α2β2 (Rattus norvegicus, UniProt P12389+P12390); test: [3H]epibatidine competition binding, rat α2β2 nAChR; conditions: read-out: Ki α2β2, ± SEM
[2] = biological target: T1, α7-nAChRs (Rattus norvegicus, UniProt Q05941); test: Binding test at α7*-nAChRs; conditions: endogenous receptors prepared from rat forebrain
[3] = biological target: T1, α7-nAChRs; test: Binding test at α7-nAChRs
[4] = test system: BALB/cJ male mice; test: Mouse forced swim test; conditions: vs vehicle
[5] = biological target: human α7-nAChRs; conditions: read-out: Ki human α7-nAChRs; cited from earlier work
[6] = 5, 10, and 30 mg/kg ip, 30 min before 6 min trial

c1ncc(-c2cc(CCN3CCOCC3)no2)cc1OC[C@@H]1CCCN1 [Compound 28, 4-[2-[5-[5-(2(S)-Pyrrolidinylmethoxy)-3-pyridinyl]-3-isoxazolyl]ethyl]morpholine]
Ki [1]: 74 ± 13 nM

OCCc1cc(-c2cncc(OC[C@@H]3CCN3)c2)on1 [Compound 13, 2-[5-[5-((S)Azetidin-2-ylmethoxy)-3-pyridinyl]-3-isoxazolyl]ethanol]
activity at α7*-nAChRs [2]: no activity
activity at α7-nAChRs [3]: no activity

c1ncc(-c2cc(CCN3CCOCC3)no2)cc1OC[C@@H]1CCN1 [Compound 27, 4-[2-[5-[5-(2(S)-Azetidinylmethoxy)-3-pyridinyl]-3-isoxazolyl]ethyl]morpholine]
Ki [1]: 12.3 ± 2.1 nM

CN[C@H]1CC[C@@H](c2ccc(Cl)c(Cl)c2)c2ccccc21 [sertraline, reference compound]
immobility in the mouse forced swim test ([4]; 20 mg/kg ip, positive control): expected decrease in immobility

FC(F)CCc1cc(-c2cncc(OC[C@@H]3CCN3)c2)on1 [Compound 25, 3-(2(S)-Azetidinylmethoxy)-5-[3-(3,3-difluoropropyl)-5-isoxazolyl]pyridine]
activity at α7*-nAChRs [2]: no activity
activity at α7-nAChRs [3]: no activity
immobility in the mouse forced swim test [4, 6]: reduced immobility

c1cncc(OC[C@@H]2CCN2)c1 [Compound A-85380, 3-(2(S)-azetidinylmethoxy) pyridine]
Ki [5]: 148 nM

FCCCc1cc(-c2cncc(OC[C@@H]3CCN3)c2)on1 [Compound 26, 3-(2(S)-Azetidinylmethoxy)-5-[3-(3-fluoropropyl)-5-isoxazolyl]pyridine]
immobility in the mouse forced swim test [4, 6]: reduced immobility

CCc1cc(-c2cncc(OC[C@@H]3CCN3)c2)on1 [Compound 38, 3-(2(S)-Azetidinylmethoxy)-5-(3-ethyl-5-isoxazolyl)pyridine]
activity at α7*-nAChRs [2]: no activity
activity at α7-nAChRs [3]: no activity
immobility in the mouse forced swim test ([4]; 1, 3, 5, 10, and 30 mg/kg ip, 30 min before 6 min trial): reduced immobility
